Data from patent US20020132813A1, “Heterocyclylalkylazole derivatives and their use as pesticides” (priority 2000, published 2002).

Legend:
[1] = system: black bean aphids (Aphis fabae); assay: Black bean aphid test: plants and aphids immersed in solution of the formulated preparation; format: in vivo; conditions: read-out: mortality of the aphids
Method: Pregerminated field bean seeds (Vicia faba) with seminal roots were transferred into amber glass bottles filled with tap water and then populated with approximately 100 black bean aphids (Aphis fabae). The plants and aphids were then immersed for 5 seconds in an aqueous solution of the formulated preparation to be tested. After the solution had been allowed to run off, the plants and animals were stored in a controlled-environment cabinet (16 hours light/day, 25° C., 40-60% atmospheric humidity). After storage for 3 and 6 days, the effect of the preparation on the aphids was determined.

[2] = system: black bean aphids (Aphis fabae); assay: Black bean aphid root-systemic test: solution pipetted into the bottle holding the field bean roots; format: in vivo; conditions: read-out: mortality of the aphids owing to the root-systemic activity
Method: Pregerminated field bean seeds (Vicia faba) with seminal roots were transferred into amber glass bottles filled with tap water. Four milliliters of an aqueous solution of the formulated preparation to be tested were pipetted into the amber glass bottle. Then, the field bean was infested with approx. 100 black bean aphids (Aphis fabae). The plant and animals were then stored in a controlled-environment cabinet (16 hours light/day, 25° C., 40-60% atmospheric humidity). After storage for 3 and 6 days, the root-systemic action of the preparation on the aphids was determined. At a concentration of 300 ppm (based on active substance content), the preparations of Examples No. 1, 8, 20, 28, 30, 34, 36, 40, 52, 54, 56, 58, 118, 138, 146, 148, 154, 158, 176, 184, 368, 369, 370 caused 90-100% mortality of the aphids owing to the root-systemic activity.

FC(F)(F)c1ccncc1-c1nc(CC2OCCCO2)no1 [Example 8, 3-(1,3-Dioxan-2-ylmethyl)-5-(4-trifluoromethyl-3-pyridyl)-1,2,4-oxadiazole]
mortality at 300 ppm [1]: 90 to 100%
mortality at 300 ppm [2]: 90 to 100%
